The values below come from patent EP2058306A1, “Heteroaryl-substituted 2-pyridinyl-methylamine derivatives” (SCHWARZ PHARMA AG, priority 2007, dated 2009).

What is called Ki is a dissociation constant, usually derived from enzyme kinetics or from competition with a known ligand. The term EC50 denotes the concentration at which the effect is half-maximal.

Data set [1] deals with human D2long, D2short (Homo sapiens, UniProt P14416). As to the kind of experiment: biochemical. Type of data set: binding. As to conditions: CHO cell membranes, [3H]spiperone; mean of two to five experiments in triplicate; read-out: Ki D2.
For data set [2], the target named is alpha-1. The data set can be described thus: radioligand binding assay, adrenergic alpha-1 receptor, [3H]prazosin. As to conditions: porcine cortical membranes, mean of two to five experiments in triplicate, read-out: Ki alpha1. The method in brief: (§1)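 Porcine cortical membranes incubated with [3H]prazosin for alpha-1 or [3H]WAY 100635 for 5-HT1A. Ki values in nM are means of two to five experiments, each in triplicate.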

Data set [3] addresses human D3 (Homo sapiens, UniProt P35462). The data set can be described thus: radioligand binding assay, dopamine D3 receptor, [3H]spiperone. As to conditions: CHO cell membranes, mean of two to five experiments in triplicate, read-out: Ki D3.
For data set [4], the target named is T1, human D4.4 (Homo sapiens, UniProt P21917).
T1 sequence (P21917 1-419): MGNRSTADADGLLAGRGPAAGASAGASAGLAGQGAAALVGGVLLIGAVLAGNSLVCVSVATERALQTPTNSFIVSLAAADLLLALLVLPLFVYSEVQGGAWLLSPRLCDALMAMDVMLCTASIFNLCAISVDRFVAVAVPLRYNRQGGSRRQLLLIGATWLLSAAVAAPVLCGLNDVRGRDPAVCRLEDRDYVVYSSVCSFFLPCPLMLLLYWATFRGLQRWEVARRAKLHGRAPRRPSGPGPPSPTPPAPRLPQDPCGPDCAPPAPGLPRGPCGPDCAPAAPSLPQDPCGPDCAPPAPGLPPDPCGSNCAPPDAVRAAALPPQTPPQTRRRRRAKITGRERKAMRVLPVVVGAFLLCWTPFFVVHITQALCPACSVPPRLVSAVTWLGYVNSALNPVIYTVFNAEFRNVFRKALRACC
As to the kind of experiment: radioligand binding assay, dopamine D4.4 receptor, [3H]spiperone. As to conditions: CHO cell membranes, mean of two to five experiments in triplicate, read-out: Ki D4.4.

Data set [5] addresses T2, dopamine D1 receptor (Sus scrofa, UniProt P50130).
T2 construct: native membrane preparations from porcine striatum; from tissue; host or cells: porcine striatum
The data set can be described thus: radioligand binding assay, dopamine D1 receptor, [3H]SCH 23390. As to conditions: porcine striatum membranes, mean of two to five experiments in triplicate, read-out: Ki D1.

For data set [6], the target named is T3, 5-HT1A (Sus scrofa, UniProt A0A4X1UTF5).
T3 construct: membrane preparations from porcine cortex; from tissue; host or cells: porcine cortex
T3 sequence (A0A4X1UTF5 1-422): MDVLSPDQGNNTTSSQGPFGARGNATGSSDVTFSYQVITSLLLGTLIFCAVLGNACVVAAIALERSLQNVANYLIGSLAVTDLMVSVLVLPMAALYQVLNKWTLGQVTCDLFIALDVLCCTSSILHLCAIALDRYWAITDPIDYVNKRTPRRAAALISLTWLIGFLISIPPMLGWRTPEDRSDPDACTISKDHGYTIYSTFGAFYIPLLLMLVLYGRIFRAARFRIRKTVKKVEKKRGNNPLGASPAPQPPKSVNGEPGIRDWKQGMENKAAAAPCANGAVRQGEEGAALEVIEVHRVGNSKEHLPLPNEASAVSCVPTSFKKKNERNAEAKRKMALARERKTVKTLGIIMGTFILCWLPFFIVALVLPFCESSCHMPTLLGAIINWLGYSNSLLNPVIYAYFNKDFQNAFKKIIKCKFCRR
The data set can be described thus: radioligand binding assay, serotonin 5-HT1A receptor, [3H]WAY 100635. As to conditions: porcine cortex membranes, mean of two to five experiments in triplicate, read-out: Ki 5-HT1a. In outline: as §1

Data set [7] deals with T4, human 5-HT1A receptor (Homo sapiens, UniProt P08908).
T4 construct: expressed in transfected cells
T4 sequence (P08908 1-422): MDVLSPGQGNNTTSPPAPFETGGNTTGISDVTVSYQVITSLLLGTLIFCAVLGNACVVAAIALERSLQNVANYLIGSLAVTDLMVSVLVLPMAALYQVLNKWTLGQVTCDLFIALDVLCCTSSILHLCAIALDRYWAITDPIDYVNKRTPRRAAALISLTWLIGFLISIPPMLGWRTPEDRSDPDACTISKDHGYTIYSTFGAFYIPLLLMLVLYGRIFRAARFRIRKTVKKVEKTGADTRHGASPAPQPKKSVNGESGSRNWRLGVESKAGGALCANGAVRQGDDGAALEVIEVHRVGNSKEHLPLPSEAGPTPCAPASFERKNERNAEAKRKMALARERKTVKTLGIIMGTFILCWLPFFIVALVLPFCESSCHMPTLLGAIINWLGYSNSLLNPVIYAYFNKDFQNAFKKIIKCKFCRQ
As to the kind of experiment: [35S]GTPγS assay of functional activity at the 5-HT1A receptor. Type of data set: biochemical. As to conditions: membranes from CHO cells expressing human 5-HT1A receptor; for 5-HT1A stimulated [35S]GTPγS binding intrinsic effect: % activity of serotonin; for EC50: read-out: 5-HT1A stimulated [35S]GTPγS binding EC50 value. As for the experimental part: In detail, membranes from CHO (Chinese hamster ovary) cells stably expressing the human 5-HT1A receptor were stimulated with an increasing concentration of test compounds used in a range of subnanomolar to micromolar concentrations in the presence of radioactive [^35S]GTPγ. The amount of bound radioactivity which indicates the amount of stimulation of the receptor was determined after transferring the membranes to filters by scintillation counting. Dose response correlations could be derived and the particular stimulation of the receptor was compared to the maximum effect of the reference compound and physiological ligand serotonin.
Table 2: Intrinsic activities of the compounds of this invention at the serotonin 5-HT1A receptor determined in a [35S]GTPγS assay
A general note: GTPγS resists hydrolysis and so accumulates on activated G proteins.

Data set [8] concerns the target T5, 5-HT2 (Sus scrofa, UniProt P50129).
T5 construct: membrane preparations from porcine cortex; from tissue; host or cells: porcine cortex
The data set can be described thus: radioligand binding assay, serotonin 5-HT2 receptor, [3H]ketanserin. More on the design: species or system porcine.

For data set [9] the following is noted: cited from Maurel et al, reference (14); cited from earlier work.
[10] abbreviates: porcine cortex membranes, [3H]ketanserin, mean of two to five experiments in triplicate, read-out: Ki 5-HT2.

Like-named read-outs stand apart in the source and are kept apart here.

Chain of human D3 (P35462 whole entry): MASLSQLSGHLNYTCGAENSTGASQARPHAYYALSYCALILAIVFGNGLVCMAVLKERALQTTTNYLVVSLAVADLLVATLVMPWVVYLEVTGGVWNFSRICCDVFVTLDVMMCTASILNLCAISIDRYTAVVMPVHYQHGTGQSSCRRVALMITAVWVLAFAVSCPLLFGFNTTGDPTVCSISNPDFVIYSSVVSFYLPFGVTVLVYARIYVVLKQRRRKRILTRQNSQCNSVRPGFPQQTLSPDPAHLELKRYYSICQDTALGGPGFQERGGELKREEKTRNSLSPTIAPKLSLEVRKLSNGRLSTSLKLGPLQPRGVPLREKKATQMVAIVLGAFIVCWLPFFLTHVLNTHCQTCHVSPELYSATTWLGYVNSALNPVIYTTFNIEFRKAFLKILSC
T2 sequence (P50130 whole entry): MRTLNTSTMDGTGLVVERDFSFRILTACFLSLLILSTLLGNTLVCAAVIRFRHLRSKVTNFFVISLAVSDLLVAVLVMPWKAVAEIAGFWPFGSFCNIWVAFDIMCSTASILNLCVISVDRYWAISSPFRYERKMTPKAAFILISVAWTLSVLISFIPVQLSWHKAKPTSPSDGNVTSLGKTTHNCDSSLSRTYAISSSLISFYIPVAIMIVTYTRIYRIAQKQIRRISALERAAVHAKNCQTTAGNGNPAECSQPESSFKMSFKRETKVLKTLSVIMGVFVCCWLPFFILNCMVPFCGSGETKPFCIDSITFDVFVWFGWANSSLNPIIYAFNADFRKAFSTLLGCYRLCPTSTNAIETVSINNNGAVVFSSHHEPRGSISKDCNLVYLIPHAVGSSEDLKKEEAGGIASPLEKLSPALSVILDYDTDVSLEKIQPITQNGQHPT
Chain of human D2long, D2short (P14416 whole entry): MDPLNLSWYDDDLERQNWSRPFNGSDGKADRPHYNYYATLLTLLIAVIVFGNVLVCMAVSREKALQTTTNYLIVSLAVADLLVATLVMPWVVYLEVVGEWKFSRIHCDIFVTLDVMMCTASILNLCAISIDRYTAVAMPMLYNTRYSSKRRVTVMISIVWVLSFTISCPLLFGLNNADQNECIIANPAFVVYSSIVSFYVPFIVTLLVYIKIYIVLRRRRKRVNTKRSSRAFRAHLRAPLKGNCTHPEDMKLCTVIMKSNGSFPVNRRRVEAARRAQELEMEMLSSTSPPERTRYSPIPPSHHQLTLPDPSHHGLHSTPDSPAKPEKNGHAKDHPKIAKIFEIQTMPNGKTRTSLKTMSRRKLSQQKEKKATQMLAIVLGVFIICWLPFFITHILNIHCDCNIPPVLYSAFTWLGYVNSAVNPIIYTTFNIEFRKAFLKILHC
T5 sequence (P50129 whole entry): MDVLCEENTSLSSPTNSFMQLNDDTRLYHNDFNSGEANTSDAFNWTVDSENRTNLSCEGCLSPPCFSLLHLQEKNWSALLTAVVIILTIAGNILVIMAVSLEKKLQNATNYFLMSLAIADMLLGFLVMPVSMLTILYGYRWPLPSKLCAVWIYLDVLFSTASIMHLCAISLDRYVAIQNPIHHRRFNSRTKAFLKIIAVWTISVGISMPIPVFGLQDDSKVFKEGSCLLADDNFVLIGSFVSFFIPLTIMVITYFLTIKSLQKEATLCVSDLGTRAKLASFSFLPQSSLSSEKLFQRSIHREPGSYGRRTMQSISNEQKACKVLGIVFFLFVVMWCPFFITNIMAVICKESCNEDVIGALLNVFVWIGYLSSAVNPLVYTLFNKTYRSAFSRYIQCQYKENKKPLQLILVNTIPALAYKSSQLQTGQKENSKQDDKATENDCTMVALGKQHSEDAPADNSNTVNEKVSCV

`Cc1ccc(CNCC2(F)CCN(C(=O)c3ccc(Cl)s3)CC2)nc1` [Example E4, 5-Chlorothien-2-yl-[4-fluoro-4-[[(5-methylpyridin-2-ylmethyl)amino]methyl]-piperidin-1-yl]-methanone]: the Ki is greater than 5 µM in [1]; 0.501 to 5 µM in data set [2]; greater than 5 µM in data set [3]; 0.501 to 5 µM in data set [4]; greater than 5 µM in [5]; less than 0.05 µM in [6]. The Ki in data set [8] (setting [10]) was greater than 5 µM. For the same molecule, the “5-HT1A stimulated [35S]GTPγS binding intrinsic effect” value (from here on “5-HT1A stimulated”) in [7] is “D (D=full agonist (>75%))”. For the same molecule, the concentration giving a half-maximal response (EC50) in [7] was less than 0.05 µM.
For the molecule `Cc1ccc(CNCC2(F)CCN(C(=O)c3sccc3Br)CC2)nc1` [Example E5, 3-Bromothien-2-yl-[4-fluoro-4-[[(5-mothylpyridin-2-ylmethyl)amino]mothyl]-piperidin-1-yl]-methanone], the inhibition constant Ki in data set [1] is greater than 5 µM; in data set [2], 0.501 to 5 µM; in data set [3], greater than 5 µM; in data set [4], 0.501 to 5 µM; in data set [5], greater than 5 µM; in [6] it was less than 0.05 µM. In data set [8], this molecule registered a Ki greater than 5 µM. The “5-HT1A stimulated” value in [7] is “D (D=full agonist (>75%))”. Further, the EC50 in data set [7] is less than 0.05 µM.
`Cc1ccc(CNCC2(F)CCN(C(=O)c3cc(Br)cs3)CC2)nc1` [Example E6, 4-Bromothien-2-yl-[4-fluoro-4-[[(5-methylpyridin-2-ylmethyl)amino]methyl]-piperidin-1-yl]-methanone]: the Ki in data set [1] is greater than 5 µM; in data set [2], 0.501 to 5 µM; in data set [3], greater than 5 µM; in data set [4], 0.501 to 5 µM; in data set [5], greater than 5 µM; in [6], less than 0.05 µM. For the same molecule, the Ki in data set [8] (setting [10]) was greater than 5 µM. Moreover, the “5-HT1A stimulated” value in data set [7] was “D (D=full agonist (>75%))”. For the same molecule, the EC50 in [7] was less than 0.05 µM.
For `Cc1ccc(CNCC2(F)CCN(C(=O)c3ccc(Br)s3)CC2)nc1` [Example E7, 5-Bromothion-2-yl-[4-fluoro-4-[[(5-mothylpyridin-2-ylmethyl)amino]methyl]-piperidin-1-yl]-methanone], the Ki is greater than 5 µM in [1]; 0.501 to 5 µM in data set [2]; greater than 5 µM in [3]; 0.501 to 5 µM in [4]; greater than 5 µM in data set [5]; less than 0.05 µM in data set [6]. The molecule also returned a Ki in data set [8] greater than 5 µM. Further, the “5-HT1A stimulated” value in data set [7] is “D (D=full agonist (>75%))”. In addition, in data set [7], the EC50 was less than 0.05 µM.
In the case of `Cc1ccc(CNCC2(F)CCN(C(=O)c3sccc3C)CC2)nc1` [Example E9, [4-Fluoro-4-[[(5-methylpyridin-2-ylmethyl)amino]methyl]piperidin-1-yl]-3-methylthien-2-yl-methanone], the Ki was greater than 5 µM in [1]; greater than 5 µM in data set [2]; greater than 5 µM in data set [3]; greater than 5 µM in [4]; greater than 5 µM in data set [5]; less than 0.05 µM in [6]. For the same molecule, the Ki in [8] (setting [10]) is greater than 5 µM. Besides, the “5-HT1A stimulated” value in data set [7] is recorded as “D (D=full agonist (>75%))”. Further, in data set [7], the EC50 was less than 0.05 µM.
In the case of `Cc1ccc(CNCC2(F)CCN(C(=O)c3cc(C)cs3)CC2)nc1` [Example E10, [4-Fluoro-4-[[(5-methylpyridin-2-ylmethyl)amino]methyl]piparidin-1-yl]-4-methylthien-2-yl-mothanone], the Ki is greater than 5 µM in data set [1]; 0.501 to 5 µM in data set [2]; greater than 5 µM in data set [3]; 0.501 to 5 µM in [4]; greater than 5 µM in [5]; less than 0.05 µM in data set [6]. In data set [8], this molecule gave a Ki greater than 5 µM. In addition, the “5-HT1A stimulated” value in data set [7] is listed as “D (D=full agonist (>75%))”. Also, the EC50 in data set [7] was less than 0.05 µM.
With `Cc1ccc(CNCC2(F)CCN(C(=O)c3ccc(C)s3)CC2)nc1` [Example E11, [4-Fluoro-4-[[(5-methylpyridin-2-ylmethyl)amino]methyl]piperidin-1-yl]-5-mothylthiophon-2-yl-mothanone], the inhibitory constant (Ki) in data set [1] is greater than 5 µM; in data set [2], greater than 5 µM; in data set [3], greater than 5 µM; in data set [4] it was 0.501 to 5 µM; in data set [5] it was greater than 5 µM; in data set [6], less than 0.05 µM. Also, in data set [8], the Ki is greater than 5 µM. Moreover, the “5-HT1A stimulated” value in [7] is reported as “D (D=full agonist (>75%))”. In addition, the EC50 in data set [7] was less than 0.05 µM.
With `Cc1ccc(CNCC2(F)CCN(C(=O)c3ccsc3)CC2)nc1` [Example E18, [4-Fluoro-4-[[(5-methylpyridin-2-ylmethyl)amino]methyl]piperidin-1-yl]-thien-3-yl-methanone], the Ki in [1] is greater than 5 µM; in [2], greater than 5 µM; in data set [3], greater than 5 µM; in [4], greater than 5 µM; in data set [5], greater than 5 µM; in [6], less than 0.05 µM. In addition, in data set [8] (setting [10]), the Ki is greater than 5 µM. In data set [7], the “5-HT1A stimulated” value is listed as “D (D=full agonist (>75%))”. The EC50 in data set [7] was less than 0.05 µM.
As for `Cc1ccc(CNCC2(F)CCN(C(=O)c3ccc(F)c(Cl)c3)CC2)nc1` [Example F13640, reference compound], the “half-life elimination from plasma” value in data set [9] was 35 h. Further, the “5-HT1A stimulated” value in data set [7] was “D (D=full agonist (>75%))”.
